{"source": "patent US20230203007A1", "about": "“PYRIDINYLACETAMIDE DERIVATIVES AS SODIUM CHANNEL ACTIVATORS” (priority 2021, published 2023)", "origin": "cited, not measured here", "key": {"Nav1.2": {"target": "Nav1.2 (Homo sapiens, UniProt Q99250)", "sequence (Q99250 whole entry)": "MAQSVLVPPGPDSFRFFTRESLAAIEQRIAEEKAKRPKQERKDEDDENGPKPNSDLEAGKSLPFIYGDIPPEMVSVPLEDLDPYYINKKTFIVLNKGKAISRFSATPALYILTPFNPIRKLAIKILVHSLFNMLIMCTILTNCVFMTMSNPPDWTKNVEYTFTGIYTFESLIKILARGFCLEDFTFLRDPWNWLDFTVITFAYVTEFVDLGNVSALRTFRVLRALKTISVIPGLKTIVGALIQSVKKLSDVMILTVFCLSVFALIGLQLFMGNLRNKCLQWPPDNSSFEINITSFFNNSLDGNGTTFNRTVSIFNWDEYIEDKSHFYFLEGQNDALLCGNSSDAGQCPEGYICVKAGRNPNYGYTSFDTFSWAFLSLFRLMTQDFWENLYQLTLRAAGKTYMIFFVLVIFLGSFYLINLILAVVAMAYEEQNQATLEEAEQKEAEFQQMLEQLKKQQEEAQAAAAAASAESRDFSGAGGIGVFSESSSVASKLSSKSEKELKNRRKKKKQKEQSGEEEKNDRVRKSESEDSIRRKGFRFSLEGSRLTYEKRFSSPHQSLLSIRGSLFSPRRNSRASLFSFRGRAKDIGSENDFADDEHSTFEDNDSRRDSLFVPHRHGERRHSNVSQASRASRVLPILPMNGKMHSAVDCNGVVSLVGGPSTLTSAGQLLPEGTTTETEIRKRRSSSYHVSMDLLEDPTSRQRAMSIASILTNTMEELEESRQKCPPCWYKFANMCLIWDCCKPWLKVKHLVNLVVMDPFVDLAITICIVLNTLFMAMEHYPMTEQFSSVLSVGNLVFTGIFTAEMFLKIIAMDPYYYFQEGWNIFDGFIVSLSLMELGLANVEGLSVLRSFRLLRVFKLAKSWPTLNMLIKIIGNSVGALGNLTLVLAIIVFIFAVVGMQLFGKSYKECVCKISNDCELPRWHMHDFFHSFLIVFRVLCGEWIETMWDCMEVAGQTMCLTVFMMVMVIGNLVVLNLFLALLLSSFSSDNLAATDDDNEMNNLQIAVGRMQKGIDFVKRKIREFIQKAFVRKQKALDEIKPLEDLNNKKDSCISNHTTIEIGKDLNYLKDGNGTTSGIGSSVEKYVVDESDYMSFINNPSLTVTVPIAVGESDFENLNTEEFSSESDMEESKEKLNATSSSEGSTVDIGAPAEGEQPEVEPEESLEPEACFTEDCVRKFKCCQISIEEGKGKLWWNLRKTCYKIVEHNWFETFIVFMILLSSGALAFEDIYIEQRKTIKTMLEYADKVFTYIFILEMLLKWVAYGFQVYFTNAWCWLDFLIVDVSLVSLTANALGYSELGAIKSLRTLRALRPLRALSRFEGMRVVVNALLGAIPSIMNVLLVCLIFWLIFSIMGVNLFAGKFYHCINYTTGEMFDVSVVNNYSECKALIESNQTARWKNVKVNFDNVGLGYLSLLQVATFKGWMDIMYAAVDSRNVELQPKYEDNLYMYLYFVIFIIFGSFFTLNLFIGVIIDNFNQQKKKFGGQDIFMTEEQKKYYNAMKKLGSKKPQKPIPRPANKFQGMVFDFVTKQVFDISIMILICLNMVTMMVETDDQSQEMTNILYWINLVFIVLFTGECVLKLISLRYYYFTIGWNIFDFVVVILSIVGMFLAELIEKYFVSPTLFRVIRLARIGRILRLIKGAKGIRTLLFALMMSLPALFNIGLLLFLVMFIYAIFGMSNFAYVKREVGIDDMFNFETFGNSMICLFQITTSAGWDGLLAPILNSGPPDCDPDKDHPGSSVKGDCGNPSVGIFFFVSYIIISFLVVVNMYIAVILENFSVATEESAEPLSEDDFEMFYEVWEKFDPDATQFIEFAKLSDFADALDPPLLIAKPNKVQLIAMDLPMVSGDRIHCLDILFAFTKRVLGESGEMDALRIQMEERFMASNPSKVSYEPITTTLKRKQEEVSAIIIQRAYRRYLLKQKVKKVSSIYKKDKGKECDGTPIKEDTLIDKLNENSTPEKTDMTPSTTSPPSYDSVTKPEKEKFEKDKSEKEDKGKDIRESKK", "conditions": "relative to Nav1.1 activation"}, "Nav1.5": {"target": "Nav1.5 (Homo sapiens, UniProt Q14524)", "sequence (Q14524 whole entry)": "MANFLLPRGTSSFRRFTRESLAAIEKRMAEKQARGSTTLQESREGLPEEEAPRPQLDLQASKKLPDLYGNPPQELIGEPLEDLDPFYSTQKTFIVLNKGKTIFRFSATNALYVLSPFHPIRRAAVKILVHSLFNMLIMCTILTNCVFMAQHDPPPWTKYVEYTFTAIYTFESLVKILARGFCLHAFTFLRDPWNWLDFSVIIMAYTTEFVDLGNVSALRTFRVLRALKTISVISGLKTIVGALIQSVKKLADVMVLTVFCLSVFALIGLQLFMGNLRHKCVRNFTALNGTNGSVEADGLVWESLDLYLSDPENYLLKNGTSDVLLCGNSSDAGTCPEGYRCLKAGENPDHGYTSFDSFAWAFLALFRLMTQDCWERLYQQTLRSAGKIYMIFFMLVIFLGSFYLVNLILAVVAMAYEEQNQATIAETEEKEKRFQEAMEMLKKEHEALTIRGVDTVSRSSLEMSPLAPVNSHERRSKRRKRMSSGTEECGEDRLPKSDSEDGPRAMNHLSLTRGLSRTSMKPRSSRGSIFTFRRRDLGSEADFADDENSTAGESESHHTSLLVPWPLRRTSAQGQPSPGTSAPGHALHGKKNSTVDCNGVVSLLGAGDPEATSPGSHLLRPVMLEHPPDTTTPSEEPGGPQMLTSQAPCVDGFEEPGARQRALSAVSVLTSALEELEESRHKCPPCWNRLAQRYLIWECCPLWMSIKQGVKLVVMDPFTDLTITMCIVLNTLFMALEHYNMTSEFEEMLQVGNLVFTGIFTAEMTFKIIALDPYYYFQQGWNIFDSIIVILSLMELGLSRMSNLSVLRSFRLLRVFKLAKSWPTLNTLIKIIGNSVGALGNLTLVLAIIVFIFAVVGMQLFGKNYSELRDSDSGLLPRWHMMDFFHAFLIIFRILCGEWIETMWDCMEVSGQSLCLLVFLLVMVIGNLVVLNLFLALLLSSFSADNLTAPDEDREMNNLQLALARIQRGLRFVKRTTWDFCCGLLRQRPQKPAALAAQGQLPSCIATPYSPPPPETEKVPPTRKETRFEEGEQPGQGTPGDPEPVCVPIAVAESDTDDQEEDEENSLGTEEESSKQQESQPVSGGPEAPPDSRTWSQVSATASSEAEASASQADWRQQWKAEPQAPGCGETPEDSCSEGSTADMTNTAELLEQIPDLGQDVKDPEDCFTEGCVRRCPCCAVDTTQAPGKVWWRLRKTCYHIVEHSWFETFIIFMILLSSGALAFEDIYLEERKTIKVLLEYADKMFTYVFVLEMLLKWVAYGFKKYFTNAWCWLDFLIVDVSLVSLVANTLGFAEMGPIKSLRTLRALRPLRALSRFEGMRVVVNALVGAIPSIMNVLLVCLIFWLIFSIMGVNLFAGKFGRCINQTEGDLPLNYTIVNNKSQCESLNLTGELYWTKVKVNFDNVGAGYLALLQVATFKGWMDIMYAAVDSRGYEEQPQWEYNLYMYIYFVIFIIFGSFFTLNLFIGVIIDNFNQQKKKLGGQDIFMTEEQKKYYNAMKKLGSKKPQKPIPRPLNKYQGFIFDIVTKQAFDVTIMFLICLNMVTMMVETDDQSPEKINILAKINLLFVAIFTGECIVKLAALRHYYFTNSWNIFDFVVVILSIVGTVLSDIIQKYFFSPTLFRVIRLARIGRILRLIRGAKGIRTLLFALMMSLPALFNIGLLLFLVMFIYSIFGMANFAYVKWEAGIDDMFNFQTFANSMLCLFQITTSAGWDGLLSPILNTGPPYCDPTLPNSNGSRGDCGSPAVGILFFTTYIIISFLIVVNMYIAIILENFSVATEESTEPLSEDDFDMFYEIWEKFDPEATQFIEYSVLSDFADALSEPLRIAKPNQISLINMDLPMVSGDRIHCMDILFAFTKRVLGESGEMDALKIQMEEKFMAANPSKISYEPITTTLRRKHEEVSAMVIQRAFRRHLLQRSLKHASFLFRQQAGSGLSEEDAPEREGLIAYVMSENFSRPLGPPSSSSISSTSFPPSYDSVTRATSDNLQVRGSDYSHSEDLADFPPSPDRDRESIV", "conditions": "relative to Nav1.1 activation"}, "Nav1.1": {"target": "T1, Nav1.1 (Homo sapiens, UniProt P35498)", "T1 construct": "host or cells: HEK cells", "conditions": "Nav1.1-expressing HEK cells"}}}
{"compound": "CCCCNS(=O)(=O)c1ccc(OC)c(-c2nnc3c4ccccc4c(C)nn23)c1", "note": "[Lu AE98134]", "values": [{"measurement": "selectivity against Nav1.2", "setting": "Nav1.2", "value": "moderate selectivity"}, {"measurement": "selectivity against Nav1.5", "setting": "Nav1.5", "value": "low selectivity"}, {"measurement": "concentration from which the total area under the curve for the duration of the depolarizing pulse is increased", "setting": "Nav1.1", "value": "≥ 1", "unit": "µM"}]}
